Laboratory results published in patent US7208517B1, “Endothelin antagonists” (Abbott Labortories, priority 1994, dated 2007).
≈ marks a conversion by molar mass, not a printed value.

Columns and labels:
[1] = Determination of plasma protein binding (ultrafiltration, HPLC); assay type: in vitro ADME; parameters: fraction unbound at 1 h: dose or concentration left out as unconfirmed; conditions: fresh plasma, 1 hour at room temperature, read-out: percent of bound compound (plasma protein binding, % PB) (converted)
Procedure: A stock solution of the test compound in 50% ethanol (2 mg/mL) was diluted 10× into PBS. A 0.4 mL sample of this secondary stock solution was added to 3.6 mL of fresh plasma, and incubated at room temperature for 1 hour. A 1 mL sample of this incubation mixture was transferred to a Centrifree ultrafiltration tube. The sample was centrifuged in a fixed-bucket rotor for approximately 2 min and the filtrate was discarded. The sample was centrifuged for another 15–30 min. A 100 μL sample of the ultrafiltrate was transfered to a micro HPLC sample vial containing […] of HPLC mobile phase and mixed thoroughly. A 50 μL sample was injected and the concentration of drug in the ultrafiltrate was determined by HPLC analysis compared against a standard sample prepared identically in the absence of plasma. Ultrafiltrate concentrations are calculated from a calibration curve. Protein binding is calculated according to the equation: % PB=[1−(Cu/Ci)]*100%
where Cu is the ultrafiltrate concentration and Ci is the initial plasma concentration.

[2] = pH-solubility profile: maximum solubility in aqueous media at varying pH; assay type: physicochemical; conditions: aqueous buffer
From the text: Such increased aqueous solubility, coupled with the enhanced potency resulting from decreased protein binding, might make such compounds preferred for development as parenteral agents.

## CCCCN(C(=O)CN1CC(c2ccc3c(c2)OCO3)C(C(=O)O)C1c1ccc(OC)cc1)c1cccnc1 (centres unmarked) [compound 531]
[1]
  fraction unbound at 1 h: 0.08
[2]; pH 5.1, about 25° C.
  solubility: > 3300 µg/mL
[2]; pH 6.5, about 25° C.
  solubility: > 3400 µg/mL
[2]; pH 7.1, about 25° C.
  solubility: 3540 µg/mL (≈ 6.66 mM)
[2]; pH 7.6, about 25° C.
  solubility: 3550 µg/mL (≈ 6.68 mM)
